Experimental data as given in patent US6670395B1, “Prophylactic and therapeutic treatment of skin sensitization and irritation” (Bristol-Myers Squibb Company, priority 1996, dated 2003).

Columns and labels:
Balb/c female mice [1] = assay: Irritation induced by captopril: mouse ear thickness; format: in vivo
Experimental: (§1) Thirty (30) Balb/c female mice were obtained from Sprague Dawley Labs. A 1.0% (w/v) solution of PAME was prepared in a gel formulation (2.5% HPMC in 75% ethanol). A second solution containing a 2:1 volume ratio of acetone to ethanol was also prepared. A 20% (w/v) solution of captopril and the second solution (sufficient to elicit a strong irritant response), was also prepared. In addition a 1.0% HPMC solution was prepared as a placebo.
(§2) The Group I mice (10 mice) received the second solution and then 10 minutes later the HPMC solution. The positive control mice (10) designated as Group II received the captopril solution to the right ear followed by the HPMC solution. The experimental group of mice (10) (Group III) received the captopril solution to the right ear followed ten minutes later by the PAME solution.
(§3) The thickness of the ears was measured after 2 hours when maximum redness and swelling from the captopril solution were observed.

Balb/c female mice [2] = assay: Irritation induced by dinitrochlorobenzene: mouse ear thickness; format: in vivo
Experimental: as §1, §2, §3
The procedures of Example 4 were repeated except that captopril was replaced with dinitrochlorobenzene (DNCB) in an amount of 2.0% (w/v) in a 1% HPMC gel.

Balb/c mice [3] = assay: Counter sensitizer to oxazolone: ear swelling after challenge of sensitized mice; format: in vivo
Experimental: (§4) A 1.0% (w/v) solution of phenoxyacetic acid methyl ester (PAME, a compound of Formula I wherein R is methyl) was prepared in a gel formulation (2.5% HPMC in 75% ethanol). The same gel formulation served as a negative control. For sensitization, a 1% (w/v) solution of dinitrochlorobenzene (DNCB) was prepared in acetone.
(§5) Twenty-four (24) Balb/c mice had their back skin shaved. The mice were divided into three equal groups. The first group acted as a negative control and received on day 0 an application of acetone. The second and third groups each received 20 μL of 1% DNCB in acetone on the exposed back skin.
All three groups were challenged on the right ear with 20μL of 1% DNCB in acetone five (5) days after sensitization. Then, 10 minutes after challenge, the first and second groups received 100 μL of 1% HPMC in 75% ethanol. The third group received 1% of PAME in the HPMC gel.
(§6) Adverse reaction to the challenge with DNCB was determined by measuring the thickness of the mice ears before and after challenge to determine the amount of swelling, and then comparing the degree of swelling for mice treated in accordance with the invention (Group III) with Groups I and Groups II.
The procedures of Example 1 were repeated except that the mice were sensitized with a 1% (w/v) solution of oxazolone.

Balb/c female mice [4] = assay: Irritation induced by retinoic acid: mouse ear thickness; format: in vivo
Experimental: as §1, §2, §3
The procedures of […] were repeated except that captopril was replaced by retinoic acid in an amount of 1% (w/v) in a 1% HPMC gel.

Balb/c mice [5] = assay: Counter sensitizer to DNCB: ear swelling after DNCB challenge of sensitized mice; format: in vivo
Experimental: as §4, §5
[…] Then, 10 minutes after challenge, the first and second groups received 100 μL of 1% HPMC in 75% ethanol. The third group received 1% of PAME in the HPMC gel.
as §6

Balb/c female mice [6] = assay: Irritation induced by phorbol myristate: mouse ear thickness; details: in vivo
Experimental: as §1, §2, §3
The procedures of Example 4 were repeated except that captopril was replaced with phorbol myristate (12-tetradecanyol-13-phorbol myristic acid) in an amount of 0.1% (w/v) in a 1% HPMC gel. Phenoxyacetic acid was also tested in this protocol.

[7] = PAME (2 mg) in HPMC gel + oxazolone (100 μg), 24 hours

SMILES	EAR THICKNESS (Balb/c female mice [1]; 1.0% PAME gel 10 minutes after 20% captopril solution, 2 hours) [MM × 10^−3]	% SUPPRESSION (Balb/c female mice [1]; PAME + captopril, 2 hours, vs captopril only)	inflammation induced by contact with captopril (in words) (Balb/c female mice [1]; mouse, in vivo)	EAR THICKNESS (Balb/c female mice [2]; PAME + DNCB 2.0% (w/v), 2 hours) [MM × 10^−3]	% SUPPRESSION (Balb/c female mice [2]; PAME + DNCB, 2 hours, vs DNCB only) [%]	inflammation induced by contact with DNCB (in words) (Balb/c female mice [2]; mouse, in vivo)	EAR SWELLING (Balb/c mice [3]; [7]) [MM × 10^−3]	EAR THICKNESS (Balb/c mice [3]; [7]) [MM × 10^−3]	% SUPPRESSION (Balb/c mice [3]; PAME (2 mg) in HPMC gel + oxazolone (100 μg), 24 hours, vs oxazolone only) [%]	adverse reactions induced by sensitization with oxazolone (in words) (Balb/c mice [3]; mouse, in vivo)	EAR THICKNESS (Balb/c female mice [4]; PAME + retinoic acid 1% (w/v), 2 hours) [MM × 10^−3]	% SUPPRESSION (Balb/c female mice [4]; PAME + retinoic acid, 2 hours, vs retinoic acid only) [%]	inflammation induced by retinoic acid (in words) (Balb/c female mice [4]; mouse, in vivo)	EAR SWELLING (Balb/c mice [5]; PAME (1 mg) in HPMC gel + DNCB (100 μg), 24 hours) [MM × 10^−3]	EAR THICKNESS (Balb/c mice [5]; PAME (1 mg) in HPMC gel + DNCB (100 μg), 24 hours, right ear) [MM × 10^−3]	% SUPPRESSION (Balb/c mice [5]; PAME (1 mg) in HPMC gel + DNCB (100 μg), 24 hours, vs DNCB only) [%]	adverse reaction of the skin induced by sensitization with DNCB (in words) (Balb/c mice [5]; administered alone, prophylactically)	inflammation induced by contact with phorbol myristate (in words) (Balb/c female mice [6])
COC(=O)COc1ccccc1 [PAME, phenoxyacetic acid methyl ester]	226 ± 5	≈93%	suppressed inflammation	249 ± 8	100	suppressed inflammation	16	278 ± 15	84	suppressed adverse reactions	237 ± 11	100	suppressed inflammation	12	240 ± 6	62	prevented an adverse reaction of the skin	suppressed inflammation
O=C(O)COc1ccccc1 [PHENOXYACETIC ACID, Phenoxyacetic acid]	–	–	–	–	–	–	–	–	–	–	–	–	–	–	–	–	–	suppressed inflammation
